# In PubChem BioAssay AID1918994 (Molecular Pharmacology Branch, DTP, NCI, 2023):
# System: 292921-168-R-J2-PDC complex spheroid growth
# Assay: Anticancer human tumor 292921-168-R-J2-PDC patient-derived pancreatic carcinoma cell line growth inhibition [AhR]
# Conditions: for IC50: curve of first compound; for viability, T/C: stronger effect = lower value
# Outline: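 Agents were dosed in half-log steps down from roughly clinical Cmax, or from 10 microM where Cmax was unknown, alone and with AhR antagonists. Read-out: percent test/control growth of tumor spheroids containing HUVEC and MSC stromal cells.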
# [1] = second compound 0.1 µM, first compound 0.00949 µM
# [2] = second compound 0.1 µM, first compound 0.03 µM
# [3] = second compound 0.1 µM, first compound 0.0949 µM
# [4] = second compound 0.1 µM, first compound 0.3 µM
# [5] = second compound 0.316 µM, first compound 0.00949 µM
# [6] = second compound 0.316 µM, first compound 0.03 µM
# [7] = second compound 0.316 µM, first compound 0.0949 µM
# [8] = second compound 0.316 µM, first compound 0.3 µM
# [9] = second compound 1 µM, first compound 0.00949 µM
# [10] = second compound 1 µM, first compound 0.03 µM
# [11] = second compound 1 µM, first compound 0.0949 µM
# [12] = second compound 1 µM, first compound 0.3 µM
# [13] = second compound 3.16 µM, first compound 0.00949 µM
# [14] = second compound 3.16 µM, first compound 0.03 µM
# [15] = second compound 3.16 µM, first compound 0.0949 µM
# [16] = second compound 3.16 µM, first compound 0.3 µM
# [17] = second compound 10 µM, first compound 0.00949 µM
# [18] = second compound 10 µM, first compound 0.03 µM
# [19] = second compound 10 µM, first compound 0.0949 µM
# [20] = second compound 10 µM, first compound 0.3 µM
# 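Further: spheroids exposed to compounds for seven days after three days of growth.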
smiles,measurement,setting,value
COc1ccc([C@@H](O)c2cc(-c3ncnc4cc(N5CCOCC5)ccc34)c(F)cc2Cl)nn1 + Cc1cncc(-c2nc(NCCc3c[nH]c4ccccc34)c3ncn(C(C)C)c3n2)c1,IC50,second compound 0.1 µM,2030 nM
same,IC50,second compound 0.316 µM,1630 nM
same,IC50,second compound 1 µM,1390 nM
same,IC50,second compound 3.16 µM,607 nM
same,IC50,second compound 10 µM,< 31.6 nM
same,"viability, T/C","second compound 0.1 µM, first compound 0.0316 µM",81.6%
same,"viability, T/C","second compound 0.1 µM, first compound 0.1 µM",85.2%
same,"viability, T/C","second compound 0.1 µM, first compound 0.316 µM",68.8%
same,"viability, T/C","second compound 0.1 µM, first compound 1 µM",67.2%
same,"viability, T/C","second compound 0.1 µM, first compound 3.16 µM",39.9%
same,"viability, T/C","second compound 0.1 µM, first compound 10 µM",25.8%
same,"viability, T/C","second compound 0.316 µM, first compound 0.0316 µM",80.6%
same,"viability, T/C","second compound 0.316 µM, first compound 0.1 µM",78.2%
same,"viability, T/C","second compound 0.316 µM, first compound 0.316 µM",81%
same,"viability, T/C","second compound 0.316 µM, first compound 1 µM",59.7%
same,"viability, T/C","second compound 0.316 µM, first compound 3.16 µM",36.3%
same,"viability, T/C","second compound 0.316 µM, first compound 10 µM",26.2%
same,"viability, T/C","second compound 1 µM, first compound 0.0316 µM",77.7%
same,"viability, T/C","second compound 1 µM, first compound 0.1 µM",79%
same,"viability, T/C","second compound 1 µM, first compound 0.316 µM",62.4%
same,"viability, T/C","second compound 1 µM, first compound 1 µM",58.7%
same,"viability, T/C","second compound 1 µM, first compound 3.16 µM",36.3%
same,"viability, T/C","second compound 1 µM, first compound 10 µM",26%
same,"viability, T/C","second compound 3.16 µM, first compound 0.0316 µM",67.1%
same,"viability, T/C","second compound 3.16 µM, first compound 0.1 µM",58.5%
same,"viability, T/C","second compound 3.16 µM, first compound 0.316 µM",63.7%
same,"viability, T/C","second compound 3.16 µM, first compound 1 µM",40.2%
same,"viability, T/C","second compound 3.16 µM, first compound 3.16 µM",32.7%
same,"viability, T/C","second compound 3.16 µM, first compound 10 µM",23.1%
same,"viability, T/C","second compound 10 µM, first compound 0.0316 µM",42.7%
same,"viability, T/C","second compound 10 µM, first compound 0.1 µM",39.5%
same,"viability, T/C","second compound 10 µM, first compound 0.316 µM",42.2%
same,"viability, T/C","second compound 10 µM, first compound 1 µM",32.3%
same,"viability, T/C","second compound 10 µM, first compound 3.16 µM",25.2%
same,"viability, T/C","second compound 10 µM, first compound 10 µM",20.5%
Nc1ncn(C2CC(O)C(CO)S2)c(=O)n1 (stereo not given) + Cc1cncc(-c2nc(NCCc3c[nH]c4ccccc34)c3ncn(C(C)C)c3n2)c1,IC50,second compound 0.1 µM,> 300 nM
same,IC50,second compound 0.316 µM,> 300 nM
same,IC50,second compound 1 µM,> 300 nM
same,IC50,second compound 3.16 µM,> 300 nM
same,IC50,second compound 10 µM,91.3 nM
same,"viability, T/C","second compound 0.1 µM, first compound 0.000949 µM",94.8%
same,"viability, T/C","second compound 0.1 µM, first compound 0.003 µM",92.2%
same,"viability, T/C",[1],91.3%
same,"viability, T/C",[2],92.6%
same,"viability, T/C",[3],87%
same,"viability, T/C",[4],89.9%
same,"viability, T/C","second compound 0.316 µM, first compound 0.000949 µM",91%
same,"viability, T/C","second compound 0.316 µM, first compound 0.003 µM",85.9%
same,"viability, T/C",[5],88.2%
same,"viability, T/C",[6],98.2%
same,"viability, T/C",[7],88.2%
same,"viability, T/C",[8],92.7%
same,"viability, T/C","second compound 1 µM, first compound 0.000949 µM",71.9%
same,"viability, T/C","second compound 1 µM, first compound 0.003 µM",74%
same,"viability, T/C",[9],69.7%
same,"viability, T/C",[10],75.1%
same,"viability, T/C",[11],82.4%
same,"viability, T/C",[12],82.9%
same,"viability, T/C","second compound 3.16 µM, first compound 0.000949 µM",52.2%
same,"viability, T/C","second compound 3.16 µM, first compound 0.003 µM",55.5%
same,"viability, T/C",[13],59.5%
same,"viability, T/C",[14],47.3%
same,"viability, T/C",[15],50%
same,"viability, T/C",[16],57.8%
same,"viability, T/C","second compound 10 µM, first compound 0.000949 µM",50.1%
same,"viability, T/C","second compound 10 µM, first compound 0.003 µM",48.8%
same,"viability, T/C",[17],54.6%
same,"viability, T/C",[18],50%
same,"viability, T/C",[19],50.2%
same,"viability, T/C",[20],48.4%
O=C(C=Cn1cnc(-c2cc(C(F)(F)F)cc(C(F)(F)F)c2)n1)NNc1cnccn1 + Cc1cncc(-c2nc(NCCc3c[nH]c4ccccc34)c3ncn(C(C)C)c3n2)c1,IC50,second compound 0.1 µM,179 nM
same,IC50,second compound 0.316 µM,165 nM
same,IC50,second compound 1 µM,194 nM
same,IC50,second compound 3.16 µM,108 nM
same,IC50,second compound 10 µM,107 nM
same,"viability, T/C",[1],90.8%
same,"viability, T/C",[2],85.3%
same,"viability, T/C",[3],62.6%
same,"viability, T/C",[4],39.1%
same,"viability, T/C","second compound 0.1 µM, first compound 0.949 µM",23%
same,"viability, T/C","second compound 0.1 µM, first compound 3 µM",15.2%
same,"viability, T/C",[5],91.9%
same,"viability, T/C",[6],86.2%
same,"viability, T/C",[7],62.1%
same,"viability, T/C",[8],36.2%
same,"viability, T/C","second compound 0.316 µM, first compound 0.949 µM",21.2%
same,"viability, T/C","second compound 0.316 µM, first compound 3 µM",16.2%
same,"viability, T/C",[9],91%
same,"viability, T/C",[10],80.2%
same,"viability, T/C",[11],62.4%
same,"viability, T/C",[12],42.5%
same,"viability, T/C","second compound 1 µM, first compound 0.949 µM",24.6%
same,"viability, T/C","second compound 1 µM, first compound 3 µM",13.1%
same,"viability, T/C",[13],83.6%
same,"viability, T/C",[14],71%
same,"viability, T/C",[15],51.5%
same,"viability, T/C",[16],35.2%
same,"viability, T/C","second compound 3.16 µM, first compound 0.949 µM",21.9%
same,"viability, T/C","second compound 3.16 µM, first compound 3 µM",18.9%
same,"viability, T/C",[17],54.4%
same,"viability, T/C",[18],58.1%
same,"viability, T/C",[19],51.2%
same,"viability, T/C",[20],38.7%
same,"viability, T/C","second compound 10 µM, first compound 0.949 µM",35.5%
same,"viability, T/C","second compound 10 µM, first compound 3 µM",29.1%
